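How tested: cells in 96-well plates exposed to compound for 48 hours at five concentrations. TGI denotes the concentration required for complete inhibition of growth.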
Tests used:
Assay in all cases: DTP human tumour cell line panel, 48 h
LOX IMVI melanoma = tested on: LOX IMVI melanoma
MALME-3M melanoma = tested on: MALME-3M melanoma
SR leukemia = tested on: SR leukemia
MOLT-4 leukemia = tested on: MOLT-4 leukemia
SNB-75 CNS = tested on: SNB-75 CNS
HOP-62 NSCLC = tested on: HOP-62 NSCLC
OVCAR-8 ovarian = tested on: OVCAR-8 ovarian
SF-268 CNS = tested on: SF-268 CNS
M14 melanoma = tested on: M14 melanoma
SF-295 CNS = tested on: SF-295 CNS
786-0 renal = tested on: 786-0 renal
NCI/ADR-RES ovarian = tested on: NCI/ADR-RES ovarian
CAKI-1 renal = tested on: CAKI-1 renal
MDA-MB-435 = tested on: MDA-MB-435
BT-549 breast = tested on: BT-549 breast
NCI-H226 lung = tested on: NCI-H226 lung
SK-MEL-28 melanoma = tested on: SK-MEL-28 melanoma
HS 578T breast = tested on: HS 578T breast
COLO 205 colon = tested on: COLO 205 colon
NCI-H460 lung = tested on: NCI-H460 lung
T-47D breast = tested on: T-47D breast
OVCAR-5 ovarian = tested on: OVCAR-5 ovarian
RXF 393 renal = tested on: RXF 393 renal
SK-OV-3 ovarian = tested on: SK-OV-3 ovarian
U251 CNS = tested on: U251 CNS
OVCAR-3 ovarian = tested on: OVCAR-3 ovarian
PC-3 prostate = tested on: PC-3 prostate
SF-539 CNS = tested on: SF-539 CNS
MCF7 breast = tested on: MCF7 breast
UACC-62 melanoma = tested on: UACC-62 melanoma
TK-10 renal = tested on: TK-10 renal
OVCAR-4 ovarian = tested on: OVCAR-4 ovarian
K-562 leukemia = tested on: K-562 leukemia
CCRF-CEM leukemia = tested on: CCRF-CEM leukemia
RPMI-8226 leukemia = tested on: RPMI-8226 leukemia
SK-MEL-5 melanoma = tested on: SK-MEL-5 melanoma
UO-31 renal = tested on: UO-31 renal
IGROV1 ovarian = tested on: IGROV1 ovarian
UACC-257 melanoma = tested on: UACC-257 melanoma
HL-60(TB) leukemia = tested on: HL-60(TB) leukemia
A549 NSCLC = tested on: A549 NSCLC
HT29 colon = tested on: HT29 colon
EKVX NSCLC = tested on: EKVX NSCLC
NCI-H23 lung = tested on: NCI-H23 lung
MDA-N = tested on: MDA-N
SNB-19 CNS = tested on: SNB-19 CNS
NCI-H522 lung = tested on: NCI-H522 lung
SK-MEL-2 melanoma = tested on: SK-MEL-2 melanoma
A498 renal = tested on: A498 renal
MDA-MB-231 breast = tested on: MDA-MB-231 breast
HCT-15 colon = tested on: HCT-15 colon
HCC-2998 colon = tested on: HCC-2998 colon
ACHN renal = tested on: ACHN renal
KM12 colon = tested on: KM12 colon
SN12C renal = tested on: SN12C renal
SW-620 colon = tested on: SW-620 colon
DU-145 prostate = tested on: DU-145 prostate
HOP-92 NSCLC = tested on: HOP-92 NSCLC
HCT-116 colon = tested on: HCT-116 colon

Measured: TGI

OCCN(CCO)CCn1cnc2c(NCc3ccccc3)ncnc21
> 100 µM: all assays above

O=C(O)CCc1ccc(-c2ccccc2)[nH]1
> 100 µM: all assays above

Reference: PubChem BioAssay (NCI)
